Experimental data: ChEMBL document CHEMBL1149084, “Synthesis and evaluation of 2-pyridyl pyrimidines with in vitro antiplasmodial and antileishmanial activity” (Bioorg Med Chem Lett, 2009)

Tests used:
[1] = test system: Leishmania donovani; assay: Antileishmanial activity against Leishmania donovani; type: functional, organism-based
[2] = test system: Plasmodium falciparum; assay: Antiplasmodial activity against chloroquine-resistant Plasmodium falciparum K1; type: functional, organism-based
[3] = test system: L6; assay: Cytotoxicity against rat L6 cells; type: ADME, cell-based
[4] = test system: Plasmodium falciparum; assay: Antimalarial activity against chloroquine-resistant Plasmodium falciparum Dd2 after 24 hrs by [3H]hypoxanthine uptake; type: functional, organism-based
[5] = Inhibition of GST-tagged Plasmodium falciparum MetAP 1B by […]
[6] = Selectivity ratio of IC50 for rat L6 cells to IC50 for Leishmania donovani

## Cc1cc(NCCc2ccccc2)nc(-c2ccccn2)n1
[1]
  IC50: 3 µM
[2]
  IC50: 3.7 µM
[3]
  IC50: 18.3 µM

## Cc1nc(-c2ccccn2)nc(N2CCC(c3ccccc3)CC2)c1Cl
[1]
  IC50: 1.1 µM
[2]
  IC50: 8.9 µM
[3]
  IC50: 183 µM

## Cc1nc(-c2ccccn2)nc(NCCNc2cc(C(F)(F)F)ccn2)c1Cl
[1]
  IC50: 0.28 µM
[2]
  IC50: 2.74 µM
[3]
  IC50: 5.2 µM

## Cc1nc(-c2ccccn2)nc(N2CCN(CCO)CC2)c1Cl
[1]
  IC50: 156 µM
[2]
  IC50: 7.5 µM
[3]
  IC50: 270 µM

## Cc1nc(-c2ccccn2)nc(NCCS(=O)(=O)c2ccccc2)c1Cl
[1]
  IC50: 11.4 µM
[2]
  IC50: 10.4 µM
[3]
  IC50: 72.8 µM

## Cc1nc(-c2ccccn2)nc(NCC2CCOC2)c1Cl (stereo unspecified)
[1]
  IC50: 10.5 µM
[2]
  IC50: 15.3 µM
[3]
  IC50: 125 µM

## Cc1nc(-c2ccccn2)nc(NCc2ccc(S(C)(=O)=O)cc2)c1Cl
[1]
  IC50: 10.7 µM
[2]
  IC50: 10.1 µM
[3]
  IC50: 93.6 µM

## Cc1nc(-c2ccccn2)nc(NCc2ccccc2)c1Cl
[1]
  IC50: 0.47 µM
[2]
  IC50: 3.2 µM
[3]
  IC50: 70.1 µM

## Cc1nc(-c2ccccn2)nc(NCCc2ccc(S(C)(=O)=O)cc2)c1Cl
[1]
  IC50: 7.4 µM
[2]
  IC50: 8.2 µM
[3]
  IC50: 104 µM

## Cc1nc(-c2ccccn2)nc(NCCc2cccc(Cl)c2)c1Cl
[1]
  IC50: 0.44 µM
[2]
  IC50: 2.5 µM
[3]
  IC50: 32.6 µM

## Cc1nc(-c2ccccn2)nc(N2CCC(c3ccccc3)C2)c1Cl (stereo unspecified)
[1]
  IC50: 0.39 µM
[2]
  IC50: 4.7 µM
[3]
  IC50: 133 µM

## Cc1nc(-c2ccccn2)nc(NCCc2ccccc2)c1Cl
[1]
  IC50: 0.5 µM
[4]
  IC50: 3.1 µM
[2]
  IC50: 9.8 µM
[5]
  IC50: 0.11 µM
[3]
  IC50: 25.5 µM

## Cc1nc(-c2ccccn2)nc(NCCCc2ccccc2)c1Cl
[1]
  IC50: 0.48 µM
[2]
  IC50: 1.9 µM
[3]
  IC50: 73.5 µM

## Cc1nc(-c2ccccn2)nc(N(C)CCc2ccccc2)c1Cl
[1]
  IC50: 0.32 µM
[2]
  IC50: 3.5 µM
[3]
  IC50: 62.5 µM

## COc1ccc(CCNc2nc(-c3ccccn3)nc(C)c2Cl)cc1
[1]
  IC50: 0.43 µM
[2]
  IC50: 2.5 µM
[3]
  IC50: 8.7 µM

## Cc1nc(-c2ccccn2)nc(NCCc2ccncc2)c1Cl
[1]
  IC50: 14.1 µM
[2]
  IC50: 9.5 µM
[3]
  IC50: 110 µM

## Cc1nc(-c2ccccn2)nc(NC2Cc3ccccc3C2)c1Cl
[1]
  IC50: 0.42 µM
[2]
  IC50: 3.7 µM
[3]
  IC50: 33.2 µM

## CCN(CC)c1nc(-c2ccccn2)nc(C)c1Cl
[1]
  IC50: 1.22 µM
[2]
  IC50: 9 µM
[6]
  selectivity ratio: > 10
[3]
  IC50: 148 µM

## Cc1nc(-c2ccccn2)nc(NCC2CCCCC2)c1Cl
[1]
  IC50: 0.31 µM
[2]
  IC50: 2.4 µM
[3]
  IC50: 42.4 µM

## Cc1nc(-c2ccccn2)nc(NCCC2CCCCC2)c1Cl
[1]
  IC50: 0.26 µM
[2]
  IC50: 2.3 µM
[3]
  IC50: 49.5 µM

## Cc1nc(-c2ccccn2)nc(N2CCCC2Cc2ccccc2)c1Cl (stereo unspecified)
[1]
  IC50: 0.63 µM
[2]
  IC50: 4.3 µM
[3]
  IC50: 92.3 µM

## Cc1nc(-c2ccccn2)nc(N2CCC(Cc3ccccc3)C2)c1Cl (stereo unspecified)
[1]
  IC50: 0.38 µM
[2]
  IC50: 3.1 µM
[3]
  IC50: 88 µM

## Cc1nc(-c2ccccn2)nc(N2CCN(S(=O)(=O)c3ccccc3)CC2)c1Cl
[1]
  IC50: 54.4 µM
[2]
  IC50: 11.6 µM
[3]
  IC50: 210 µM

## Cc1nc(-c2ccccn2)nc(NCCc2ccc(Cl)cc2)c1Cl
[1]
  IC50: 0.45 µM
[2]
  IC50: 2 µM
[3]
  IC50: 40.4 µM

## Cc1nc(-c2ccccn2)nc(N)c1Cl
[1]
  IC50: 3.3 µM
[2]
  IC50: 20.8 µM
[6]
  selectivity ratio: > 10
[3]
  IC50: 85.3 µM

## Cc1nc(-c2ccccn2)nc(N(C)C)c1Cl
[1]
  IC50: 1.1 µM
[2]
  IC50: 15.1 µM
[6]
  selectivity ratio: > 10
[3]
  IC50: 115 µM

## FC(F)(F)c1cc(NCCc2ccccc2)nc(-c2ccccn2)n1
[1]
  IC50: 2 µM
[2]
  IC50: 8.2 µM
[3]
  IC50: 74.2 µM

## Cc1nc(-c2ccccn2)nc(N2CCCC2c2ccccc2)c1Cl (stereo unspecified)
[1]
  IC50: 0.7 µM
[2]
  IC50: 4.1 µM
[3]
  IC50: 76.5 µM

## Cc1nc(-c2ccccn2)nc(NCCc2ccccc2Cl)c1Cl
[1]
  IC50: 1.2 µM
[2]
  IC50: 6.3 µM
[3]
  IC50: 91.6 µM

## C[C@@H]1CC[C@H]2[C@@H](C)C(=O)O[C@@H]3O[C@@]4(C)CC[C@@H]1[C@]32OO4 [ARTEMISININ]
[2]
  IC50: 0.005 µM
[3]
  IC50: > 170 µM

## CCN(CC)CCCC(C)Nc1ccnc2cc(Cl)ccc12 (stereo unspecified) [CHLOROQUINE]
[3]
  IC50: 70.1 µM

## CCCCCCCCCCCCCCCCOP(=O)([O-])OCC[N+](C)(C)C [MILTEFOSINE]
[1]
  IC50: 0.7 µM
